Experimental data published in patent publication US9579337B2, “Use of uridine and deoxyuridine to treat folate-responsive pathologies” (priority 2011, dated 2017).

What was measured:
[1] = tested on: Shmt1-deficient embryos (NTDs, exencephaly); assay: Neural tube defects (exencephaly) in embryos of Shmt1 dams fed nucleoside-supplemented diets; assay type: in vivo, mouse; settings: for prevention of NTDs by supplementation of the folate-deficient (FD) diet: maternal folate deficiency, 0.2% thymidine or 0.1% 2'-deoxyuridine in diet; for Shmt1+/+ embryos with exencephaly: crosses involving Shmt1+/+ dams
Description: NTDs were examined in litters harvested from crosses of 129SvEv-Shmt1 (N=10 and more) mice. Shmt1^+/−, Shm1^+/+, and Shmt1^−/− mice were generated from Shmt1^+/− breeding pairs maintained as a heterozygote breeding colonies. Shmt1^+/+ and Shmt1^−/− female mice were then crossed to Shmt1^+/− male mice for timed mating experiments, as described below.
Mice were maintained on a 12-hour light/dark cycle in a temperature-controlled room. For studies investigating Shmt1 disruption and NTDs, female mice were randomly assigned at weaning to experimental AIN93G diets containing folic acid (C) or AIN93G lacking folic acid (FD) (FIG. 2) and including 0.6% uridine (Rudolph F B & Van Buren C T (1993), which is hereby incorporated by reference in its entirety), 0.2% thymidine (Iwasa et al., “The Well-Balanced Nucleoside-Nucleotide Mixture ‘0G-VI’ for Special Medical Purposes,” Nutrition 13(4):361-364 (1997), which is hereby incorporated by reference in its entirety), or 0.1% 2′-Deoxyuridine supplementation (Dyets, Bethlehem, Pa.). Diets were assigned with these abbreviations: AIN-93G as control (“C”); Folate Deficient (“FD”), C+ supplemented with 0.6% uridine (“C+U”), C+ supplemented with 0.2% thymidine (“C+T”), C+ supplemented with 0.1% 2′-Deoxyuridine (“C+dU”), FD+ supplemented with 0.6% uridine (“FD+U”), FD+ supplemented with 0.2% thymidine (“FD+T”), FD+ supplemented with 0.1% 2′-Deoxyuridine (“FD+dU”).
(§1) For all studies, mouse dams were maintained on diet from weaning throughout the breeding period and for the duration of gestation, until killed. Virgin female mice aged 70-120 days were housed overnight with males. The following morning, females were examined for the presence of a vaginal plug. Nine o'clock a.m. the day of the plug appearance was designated as gestational day 0.5 (E0.5). Pregnant females were sacrificed by cervical dislocation at E11.5 and blood was collected by cardiac puncture. Gravid uteri were removed and all implants and resorption sites were recorded. Embryos were examined for presence of NTDs and measured for crown-rump length. All yolk sacs were collected for subsequent genotyping. Embryos were extracted at E11.5 and rapidly frozen in liquid nitrogen followed by storage at −80° C. for biochemical analyses. Embryos examined for morphological abnormalities were derived at E11.5, and fixed in 10% neutral buffered formalin.
Analysis of NTD incidence, including differences between Genotypes, Diets, and interactions of Diet×genotype were analyzed by 2-factor ANOVA by using Tukey's honestly significant difference for post hoc analysis.

[2] = tested on: intestinal tumors in Apc-min mice; assay: Intestinal tumor number in Apc-min mice fed supplemented diets; assay type: in vivo, mouse; settings: for intestinal tumors (number per mouse): AIN-93G diet lacking folic acid supplemented with 0.6% uridine or 0.1% deoxyuridine, FD alone 35+/-5
Description: SHMT1 null ([…]) mice were generated as previously described (MacFarlane et al., “Cytoplasmic Serine Hydroxymethyltransferase Regulates the Metabolic Partitioning of Methylenetetrahydrofolate but is Not Essential in Mice,” J. Biol. Chem. 283(38):25846-25853 (2008), which is hereby incorporated by reference in its entirety) and backcrossed a minimum of 10 generations onto the C57BL/6J strain. Mice were genotyped using the forward primer 5′-GACACTGTTCACATCCCTC-3′ (SEQ ID NO:1) and the reverse primer 5′-CAAAACATTCGGGAGCCTC-3′ (SEQ ID NO:2). The forward primer corresponds to an intron 6 sequence located 5′ to a loxP site and exon 7 and the reverse primer corresponds to an intron 7 sequence located downstream of a 3′ loxP site (MacFarlane et al., “Cytoplasmic Serine Hydroxymethyltransferase Regulates the Metabolic Partitioning of Methylenetetrahydrofolate but is Not Essential in Mice,” J. Biol. Chem. 283(38):25846-25853 (2008), which is hereby incorporated by reference in its entirety). C57BL/6J-Apc^Min/J (Apc^min/+) mice were obtained. Genotyping of Apc^min/+ mice was performed using the following primers recommended by The Jackson Laboratory protocol: wild-type forward primer 5′-GCCATCCCTTCACGTTAG-3′ (SEQ ID NO:3), Min forward primer 5′-[…]-3′ (SEQ ID NO:4), and a common reverse primer 5′-TTCCACTTTGGCATAAGGC-3′ (SEQ ID NO:5). […]
The small intestine and colon were removed, flushed with cold PBS, opened longitudinally, and laid flat lumen side up for examination using a dissecting microscope as previously described (Chiu et al., “Sulindac Causes Rapid Regression of Preexisting Tumors in Min/+Mice Independent of Prostaglandin Biosynthesis,” Cancer Res. 57:4267-73 (1997), which is hereby incorporated by reference in its entirety). Tumors were counted according to intestinal location (small intestine or colon) and their diameter measured by a pathologist-trained investigator who was blinded to the genotype of the intestinal specimen. Tumor load is a function of tumor number and area and was calculated as the total tumor area per mouse. […]

[3] = tested on: female mice; assay: Gross observations in female mice weaned on the diets; assay type: in vivo, mouse
[4] = tested on: embryos and litters of Shmt1 dams; assay: Implants, resorptions, dead embryos and crown-rump length in litters of Shmt1 dams; assay type: in vivo, mouse; settings: for implantation, dead embryos occurrence, rates of resorption compared with C diet: litters from dams
Description: as §1
Analysis of embryonic CR length, total litter resorptions and implants was analyzed by 2-factor ANOVA with Tukey's honestly significant difference for post hoc analysis, in which litter was considered as a random effect. Independent variables included maternal genotype and diet. Resorption rate was calculated as the ratio of resorptions/total implants per litter and log-transformation was applied to normalize the data. Chi-squared analyses were used to assess any deviation from expected genotype ratios based on Mendelian inheritance. Analysis of uracil concentration, Thymidine, deoxyuridine, glucose and folate were conducted by 2-factor ANOVA with Tukey honestly significant differences for post hoc analysis. Independent variables included maternal genotype and diet. All test were performed in JMP version 8.02 (SAS institute). Western blots analyses were assessed using ANOVA and Dunnett's Multiple Comparison Test. […] All statistics were performed using GraphPad Prism version 4.00 for Windows, GraphPad Software, San Diego Calif. USA.

[5] = tested on: splotch mutant (Pax3^Sp); settings: splotch mutant / splotch homozygotes; literature (Wlodarczyk 2005; Fleming 1998; others); cited from earlier work
[6] = Shmt1-/- dams fed FD+T diet (0.2% thymidine), out of 32
[7] = Shmt1+/+ dams, C+U diet (inferred), out of 69
[8] = Shmt1+/+ female mice fed FD+U diet (0.6% uridine), out of 56

SMILES: O=c1ccn([C@H]2C[C@H](O)[C@@H](CO)O2)c(=O)[nH]1 [deoxyuridine, 2′-Deoxyuridine]
- NTD occurrence ([1]; Shmt1+/+ and Shmt1-/- dams fed FD+dU diet (folic acid deficient + 0.1% 2'-deoxyuridine)): did not exhibit NTDs
- prevention of NTDs by supplementation of the folate-deficient (FD) diet [1]: prevented NTDs
- intestinal tumors (number per mouse) [2]: 29+/−2.0
- effect on tumor number ([2]; FD diet + 0.1% deoxyuridine): no effect on tumor number
- other gross findings ([3]; dU and dUFD groups): Edematous of internal organs (up to 4 mice from dU and dUFD groups together), blood in GI track and uterus, and discoloration of pancreas
- lymphoid aggregates on colons compared to other groups ([3]; female mice weaned on C+dU and FD+dU): High frequency of numerous lymphoid aggregates
- number of dead embryos ([4]; dams fed FD+dU and C+dU diets (0.1% 2'-deoxyuridine)): higher number of dead embryos, but the differences did not reach significance
- implantation, dead embryos occurrence, rates of resorption compared with C diet [4]: Neither implantation, dead embryos occurrence, or rates of resorption were significantly different

SMILES: Nc1nc2ncc(CNc3ccc(C(=O)N[C@@H](CCC(=O)O)C(=O)O)cc3)nc2c(=O)[nH]1 [folic acid]
- rescue / prevention of NTDs by dietary supplementation [5]: can be rescued

SMILES: Cc1cn([C@H]2C[C@H](O)[C@@H](CO)O2)c(=O)[nH]c1=O [thymidine, reference compound]
- number of embryos with NTDs ([1]; Shmt1+/+ dams fed FD+T diet (0.2% thymidine), out of 49): 2 NTDs
- frequency of NTDs (exencephaly) in embryos ([1]; Shmt1+/+ dams fed FD+T diet (AIN93G lacking folic acid + 0.2% thymidine), out of 49): 4.1%
- frequency of NTDs (exencephaly) in embryos [1, 6]: 9.4%
- number of embryos with NTDs [1, 6]: 3 NTDs
- Shmt1+/+ embryos with exencephaly [1]: one
- NTD occurrence ([1]; dams fed C+T diet (AIN-93G + 0.2% thymidine)): No NTDs were uncovered
- prevention of NTDs by supplementation of the folate-deficient (FD) diet [1]: did not prevent NTD occurrence and not

SMILES: O=c1ccn([C@@H]2O[C@H](CO)[C@@H](O)[C@H]2O)c(=O)[nH]1 [uridine]
- frequency of exencephaly in embryos [1, 7]: 5.8%
- number of embryos with NTDs [1, 7]: 4 NTDs
- frequency of exencephaly in embryos [1, 8]: 5.4%
- number of embryos with exencephaly [1, 8]: 3
- number of embryos with exencephaly ([1]; Shmt1-/- dams fed FD+U diet (0.6% uridine), of 44 viable embryos): 7
- frequency of exencephaly in embryos ([1]; Shmt1-/- dams fed FD+U diet (folate deficient + 0.6% uridine), of 44 viable embryos): 15.9%
- frequency of exencephaly in embryos ([1]; Shmt1-/- dams, C+U diet (AIN-93G + 0.6% uridine; diet inferred from next sentence), out of 50 viable embryos): 6%
- number of embryos with NTDs ([1]; Shmt1-/- dams, C+U diet (inferred), out of 50 viable embryos): 3 NTDs
- Shmt1+/+ embryos with exencephaly [1]: One
- effect on NTD frequency ([1]; uridine supplementation, independent of dietary folic acid): exacerbated NTD frequency
- intestinal tumors (number per mouse) [2]: 18+/−2
- implantation, dead embryos occurrence, rates of resorption compared with C diet [4]: Neither implantation, dead embryos occurrence, or rates of resorption were significantly different
